Reference: patent US20210267207A1, “NOVEL AGROCHEMICAL COMBINATIONS” (priority 2018, published 2021)
Where two headings read alike, the source gives them in different places.

What was measured:
[1] = format: in vivo; details: paddy
white ears in paddy = experiment: Field trial on white ears in paddy, number of white ears per plot; format: in vivo
stem borer = experiment: Field trial of the combination on stem borer in paddy, % mortality; format: in vivo
Protocol: Trials were conducted to test the efficacy of the combination of Chlorantraniliprole+Dinotefuran+Pymetrozine on stem borer in paddy: […]

SMILES: CNC(=N[N+](=O)[O-])NCC1CCOC1 (racemic) [Dinotefuran, (EZ)—(RS)-1-methyl-2-nitro-3-(tetrahydro-3-furylmethyl)guanidine]
- Yield ([1]; dose 40 gm. ai/ha): 3500
- Number of white ears per plot 7 DAA (white ears in paddy; dose 40 gm. ai/ha): 11
- Number of white ears per plot 14 DAA (white ears in paddy; dose 40 gm. ai/ha): 19
- Number of white ears per plot 21 DAA (white ears in paddy; dose 40 gm. ai/ha): 41
- % mortality 3 DAA (stem borer; dose 40 gm. ai/ha): 65%
- % mortality 7 DAA (stem borer; dose 40 gm. ai/ha): 75%
- % mortality 10 DAA (stem borer; dose 40 gm. ai/ha): 75%
- % mortality 14 DAA (stem borer; dose 40 gm. ai/ha): 70%

SMILES: CNC(=O)c1cc(Cl)cc(C)c1NC(=O)c1cc(Br)nn1-c1ncccc1Cl [Chlorantraniliprole, 3-bromo-4′-chloro-1-(3-chloro-2-pyridyl)-2′-methyl-6′-(methylcarbamoyl)pyrazole-5-carboxanilide]
- Yield ([1]; dose 30 gm. ai/ha): 4322
- Number of white ears per plot 7 DAA (white ears in paddy; dose 30 gm. ai/ha): 5
- Number of white ears per plot 14 DAA (white ears in paddy; dose 30 gm. ai/ha): 7
- Number of white ears per plot 21 DAA (white ears in paddy; dose 30 gm. ai/ha): 14
- % mortality 3 DAA (stem borer; dose 30 gm. ai/ha): 3%
- % mortality 7 DAA (stem borer; dose 30 gm. ai/ha): 7%
- % mortality 10 DAA (stem borer; dose 30 gm. ai/ha): 7.9%
- % mortality 14 DAA (stem borer; dose 30 gm. ai/ha): 6.9%

SMILES: CC1=NNC(=O)N(/N=C/c2cccnc2)C1 [Pymetrozine]
- Yield ([1]; dose 150 gm. ai/ha): 3600
- Number of white ears per plot 7 DAA (white ears in paddy; dose 150 gm. ai/ha): 12
- Number of white ears per plot 14 DAA (white ears in paddy; dose 150 gm. ai/ha): 22
- Number of white ears per plot 21 DAA (white ears in paddy; dose 150 gm. ai/ha): 43
- % mortality 3 DAA (stem borer; dose 150 gm. ai/ha): 75%
- % mortality 7 DAA (stem borer; dose 150 gm. ai/ha): 88%
- % mortality 10 DAA (stem borer; dose 150 gm. ai/ha): 89%
- % mortality 14 DAA (stem borer; dose 150 gm. ai/ha): 79%
